{"source": "patent US20120270774A1", "about": "“MACROCYCLIC COMPOUNDS, COMPOSITIONS COMPRISING THEM AND METHODS FOR PREVENTING OR TREATING HIV INFECTION” (Yissum Research Development Company of the Hebrew …, priority 2009, published 2012)", "key": {"[1]": {"test_system": "pseudo typed viruses that express VSV-gp instead of gp-120", "assay_type": "cell-based"}, "[2]": {"assay": "Pharmacokinetic profile of CG-1 following IV and PO administration", "experimental": "Rats were kept in a light-controlled room (light from 7:00 to 19:00) and were maintained on laboratory chow and water ad libitum.\nThe pharmacokinetic profile of CG-1 was studied following intravenous (IV) and per-os (PO) administration to rats. Studies were performed in conscious Wistar male rats. An indwelling cannula was implanted into the left jugular vein 24 hours before the pharmacokinetic experiment to allow full recovery of the animals from the surgical procedure. Animals (n=5) received an intravenous (IV) bolus dose of 1 mg/kg of CG-1 or 10 mg/kg by oral gavage (n=5), CG-1 was dissolved in water. […] Plasma was separated by centrifugation (4000 g, 5 min, 4° C.) and stored at −70° C. pending analysis. A non-compartmental pharmacokinetic approach was used to compare pharmacokinetic profiles obtained following different modes of administration and to calculate bioavailability values. All calculations were performed utilizing WinNonlin® 5.0.1 software (Pharsight Corporation, Mountain View, Calif., USA).\nNon-compartmental pharmacokinetic analysis was performed using WinNonlin software, standard."}, "[3]": {"test_system": "intestinal brush border enzymes", "assay": "Brush border membrane vesicles (BBMV) stability", "assay_type": "in vitro ADME, Wistar rats", "details": "incubation in BBMVs at 37° C.", "protocol": "Brush border membrane vesicles (BBMVs) were prepared from combined duodenum, jejunum, and upper ileum by a Ca^+2 precipitation method ([…]., 1997., Biochim Biophys Acta 1323, 45-56, […] et al. 2003., Biochem Biophys Res Commun 301, 8-12). The intestines of 5 male Wistar rats, 200-250 gr, were rinsed with ice cold 0.9% NaCl and freed of mucus; the mucosa was scraped off the luminal surface with glass slides and put immediately into buffer containing […] and 10 mM Tris-HCl (pH 7.5, 4° C.) and then homogenated (Polytron PT 1200, Kinematica AG, Switzerland). CaCl2 was added to a final concentration of 10 mM. The homogenate was left shaking for 30 min at 4° C. and then centrifuged at 10,000 g for 10 min. The supernatant was then centrifuged at 48,000 g for 30 min and an additional two purification steps were undertaken by suspending the pellet in 300 mM mannitol and 10 mM Hepes/Tris (pH 7.5) and centrifuging at […]. Purification of brush border membranes was assayed using the brush border membrane enzyme markers gamma-glutamyl transpeptidase (GGT), leucine amino peptidase (LAP) and alkaline phosphatase. During the course of these studies, enrichment in brush border membrane enzymes varied between 13- and 18-fold. The enzymatic reaction was performed as previously reported (Ovadia et al., 2009, Bioorg Med Chem 18, 580-589). […]"}, "[4]": {"assay": "Pharmacokinetics of oral CG-1 with or without ritonavir", "experimental": "The pharmacokinetic profile of CG-1 was studied following intravenous (IV) and per-os (PO) administration to rats. Studies were performed in conscious Wistar male rats. An indwelling cannula was implanted into the left jugular vein 24 hours before the pharmacokinetic experiment to allow full recovery of the animals from the surgical procedure. Animals (n=5) received an intravenous (IV) bolus dose of 1 mg/kg of CG-1 or 10 mg/kg by oral gavage (n=5), CG-1 was dissolved in water. […] CG-1 administration. Plasma was separated by centrifugation (4000 g, 5 min, 4° C.) and stored at −70° C. pending analysis. A non-compartmental pharmacokinetic approach was used to compare pharmacokinetic profiles obtained following different modes of administration and to calculate bioavailability values. All calculations were performed utilizing WinNonlin® 5.0.1 software (Pharsight Corporation, Mountain View, Calif., USA).\nThe pharmacokinetic tests were repeated as above with the addition of ritonavir to the oral administration of CG-1. The study included three groups; the first group received 10 mg/kg of CG-1 in aqueous solution, the second one received an emulsion of 10 mg/kg of CG-1 and 10 mg/kg of ritonavir and the third group received CG-1 in the same emulsion without ritonavir."}, "[5]": {"assay": "Permeability ex-vivo, Ussing side by side diffusion chamber", "assay_type": "in vitro ADME, Wistar rats", "details": "Ussing model"}, "[6]": {"test_system": "HIV-1 strand HXB2", "assay": "HIV-1 infection inhibition, MAGI assay", "assay_type": "cell-based", "details": "for effect on HIV-1 infection (in words): MAGI assay, cultured cells, μM range", "protocol": "Hela cells were obtained from ATCC, (Manassas, Va., USA) and then grown in 75 cm2 flasks with approximately 0.5×10^6 cells/flask at 37° C. in 5% CO2 atmosphere and at a relative humidity of 95%. The culture growth medium consisted of Dulbecco's Modified Eagle Medium (DMEM) supplemented with 10% heat-inactivated fetal bovine serum (FBS), 1% nonessential amino acids. The medium was replaced every other day. Titration of HIV-1 strand HXB2 in the absence or presence of the inhibitor was carried out by the multinuclear activation of a galactosidase indicator (MAGI) assay, similarly to the procedure described by Kimpton and […] (Virol. 66, 2232, 1992). Briefly, HeLa-CD4+beta-gal cells were transferred into 96-well plates at 15×10^3 cells per well. On the following day, the cells were infected with 50 μl of serially diluted virus in the presence of […] of DEAE-dextran (Pharmacia, Sweden). Two days post-infection, cultured cells were fixed with 1% formaldehyde and 0.2% glutaraldehyde in PBS. Following intensive wash with PBS, cells were stained with a solution of 4 mM potassium ferrocyanide, 4 mM potassium ferricyanide, 2 mM MgCl2 and 0.4 mg/ml of X-Gal (Ornat, Israel). Blue cells were counted under a light microscope. According to a slightly different procedure, the assay consisted of CD4 expressing Hela P4 cells containing the β-galactosidase reporter gene placed downstream […]. the HIV-LTR promotor. These cells were seeded 24 hours prior to viral infection at a density of 5×10^5 […] in 24 well culture plates (TPP model by Beyneix). 50 μL of virus solution prepared from CEM infected cells' supernatant, were incubated for 1 hour with the assayed peptides at the required concentrations, at 4° C. 10 μg of anti CD4 monoclonal antibodies 13B8.2 or […] were used as control. After incubation the virus solution was diluted to a total volume of 1 ml and was added to the Hela P4 cells. The cells were incubated at these conditions for 3 days after which their infection rate was assayed according to the β-galactosidase activity in the cells extract. The cells were washed well, harvested and disintegrated in a buffer containing 60 mM Na2HPO4, 40 mM NaH2PO4, 10 mM KCl, 1 mM MgSO4, 50 mM β-mercaptoethanol, 2.5 mM EDTA, 0.125% NP40, 0.125% triton, 20% glycerol, 0.2 mM PMSF and 100 U/ml approtinin. The cells extract was cleaned by centrifuge at 4° C. for 15 min at 13,000 rpm. β-galactosidase activity was determined by incubation of 150 μL of total cell extract at 37° C. for 2 hours in the presence of 6 mM ONPG (O-Nitrophenyl-β-D-galactopyranoside) in a buffer containing 80 mM Na2HPO4, 1 mM β-mercaptoethanol and 10 m MMgCl2, followed by absorption measurement at 410 nm. The β-galactosidase activity was normalized according to the total protein quantity in the assay."}, "[7]": {"test_system": "human liver microsomes", "assay_type": "in vitro ADME", "protocol": "The oxidative metabolism was evaluated in pooled liver microsomes of rats and humans with or without 3 μM of ketoconazole (CYP3A4 inhibitor) (Yang et al., 2005, Biopharm Drug Dispos 26, 387-402). The microsomes were purchased from BD Biosciences (Woburn, Mass.). […] The incubation mixture (3 ml) was prepared in triplicate for each species in a 0.1 m potassium phosphate buffer (pH 7.4) containing 1 μM of substrate, 0.5 μM CYP enzymes, 1.8 mM glucose-6-phosphate and 0.4 units/ml glucose-6-phosphate dehydrogenase. After a 5 min preincubation at 37° C., the reaction was initiated by adding β-NADPH (0.15 mM final concentration). Aliquots of 0.25 ml were taken at 0, 15 and 30 min and placed into 3 volumes of icecold acetonitrile (containing an internal standard) to terminate the reaction. The samples were vortexed and centrifuged at 10000 RPM for 8 min to collect supernatant for sample analysis."}, "[8]": {"details": "PO 10 mg/kg with RTV 10 mg/kg (emulsion)"}}}
{"compound": "N=C(N)NCCCC1NC(=O)CCCCCC(=O)NC(Cc2ccccc2)CN(CC(N)=O)C1=O", "note": "(centres unmarked) [CG-1]", "values": [{"measurement": "infection inhibition of VSV-gp pseudo typed viruses", "setting": "[1]", "result": "did not have any effect"}, {"measurement": "Cmax", "setting": "[2]; IV bolus, 1 mg/kg", "result": "102 ± 19", "unit": "ng/mL"}, {"measurement": "Tmax", "setting": "[2]; IV bolus, 1 mg/kg", "result": 5, "unit": "min"}, {"measurement": "Oral bioavailability", "setting": "[2]; PO 10 mg/kg vs IV 1 mg/kg", "result": "~10", "unit": "%"}, {"measurement": "AUC", "setting": "[2]; PO, 10 mg/kg oral gavage", "result": "21770 ± 63", "unit": "ng·min/mL"}, {"measurement": "Cmax", "setting": "[2]; PO, 10 mg/kg oral gavage", "result": "866 ± 76", "unit": "ng/mL"}, {"measurement": "Tmax", "setting": "[2]; PO, 10 mg/kg oral gavage", "result": 18, "unit": "min"}, {"measurement": "CI", "setting": "[2]; printed in the PO row", "result": "14.53 ± 0.33", "unit": "mL/min/kg"}, {"measurement": "Vss", "setting": "[2]; printed in the PO row", "result": 0.6, "unit": "L/kg"}, {"measurement": "stability to enzymatic degradation in BBMVs", "setting": "[3]", "result": "metabolically stable and is not degraded"}, {"measurement": "Oral bioavailability", "setting": "[4]; [8]", "result": "21±3", "unit": "%"}, {"measurement": "T1/2", "setting": "[4]; [8]", "result": "93 ± 8", "unit": "min"}, {"measurement": "Tmax", "setting": "[4]; [8]", "result": "18 ± 2", "unit": "min"}, {"measurement": "Oral bioavailability", "setting": "[4]; PO 10 mg/kg, without ritonavir", "result": "7.3±1.6", "unit": "%"}, {"measurement": "T1/2", "setting": "[4]; PO 10 mg/kg, without ritonavir", "result": "73 ± 6", "unit": "min"}, {"measurement": "Tmax", "setting": "[4]; PO 10 mg/kg, without ritonavir", "result": "18 ± 1.5", "unit": "min"}, {"measurement": "Cmax increase when ritonavir was added", "setting": "[4]; with vs without ritonavir", "result": 3, "unit": "fold"}, {"measurement": "permeability coefficient (Papp) ex-vivo compared with the other analogs", "setting": "[5]", "result": "significantly higher than the other analogs"}, {"measurement": "transport in the distal regions", "setting": "[5]; distal regions (ileum, colon)", "result": "significantly lower"}, {"measurement": "transport in the jejunum", "setting": "[5]; jejunum", "result": "significantly higher"}, {"measurement": "effect on HIV-1 infection (in words)", "setting": "[6]", "result": "low μM activity"}, {"measurement": "inhibition of viral infection", "setting": "[6]; low μM range", "result": "> 80", "unit": "%"}, {"measurement": "oxidative metabolism in liver microsomes", "setting": "[7]", "result": "partially metabolized"}, {"measurement": "microsomal stability with ketoconazole", "setting": "[7]; human, microsomes", "result": "significantly improved its stability"}]}
{"compound": "N=C(N)NCCCC1NC(=O)CCCCCC(=O)NC(Cc2ccc(O)cc2)CN(CC(N)=O)C1=O", "note": "(centres unmarked) [MC-1]", "values": [{"measurement": "effect on HIV-1 infection (in words)", "setting": "[6]", "result": "did not reduce the infectivity"}]}
{"compound": "N=C(N)NCCCC1CN(CC(N)=O)C(=O)C(Cc2ccccc2)NC(=O)CCCCCC(=O)N1", "note": "(centres unmarked) [SC-1]", "values": [{"measurement": "effect on HIV-1 infection (in words)", "setting": "[6]", "result": "weak inhibitory effect"}]}
